# Measurements from ChEMBL document CHEMBL1138939, “Privileged structure based ligands for melanocortin receptors--4,4-disubstituted piperidine derivatives” (Bioorg Med Chem Lett, 2006).
# pKi: −log10 of the molar value.
# Biological target: Melanocortin receptor 4 (Homo sapiens, UniProt P32245)
# Assay: Displacement of [125I]NDP-alpha-MSH from human MC4 receptor transfected in HEK293 cells
# Assay type: cell-based
# Melanocortin receptor 4, sequence (P32245 whole entry): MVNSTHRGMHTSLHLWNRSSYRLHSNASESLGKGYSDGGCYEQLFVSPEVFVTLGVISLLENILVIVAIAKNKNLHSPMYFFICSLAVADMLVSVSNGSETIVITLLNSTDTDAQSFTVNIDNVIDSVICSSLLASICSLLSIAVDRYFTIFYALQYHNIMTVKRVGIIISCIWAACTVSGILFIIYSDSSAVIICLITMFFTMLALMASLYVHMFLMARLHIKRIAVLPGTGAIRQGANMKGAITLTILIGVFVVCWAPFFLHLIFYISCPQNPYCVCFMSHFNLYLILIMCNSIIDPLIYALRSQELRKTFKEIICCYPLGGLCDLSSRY
row,SMILES,pKi
1,CCC1(N2CCN(C(=O)[C@@H](Cc3ccc(Cl)cc3)NC(=O)CC3NCc4ccccc43)CC2)CCN(C)CC1 (some centres not stated),6.43
2,CC(C)CC1(N2CCN(C(=O)[C@@H](Cc3ccc(Cl)cc3)NC(=O)CC3NCc4ccccc43)CC2)CCN(C(=O)C(C)C)CC1 (some centres not stated),7.00
3,CCCCCCC1(N2CCN(C(=O)[C@@H](Cc3ccc(Cl)cc3)NC(=O)CC3NCc4ccccc43)CC2)CCN(C)CC1 (some centres not stated),7.16
4,CC(C)C1(N2CCN(C(=O)[C@@H](Cc3ccc(Cl)cc3)NC(=O)CC3NCc4ccccc43)CC2)CCN(C)CC1 (some centres not stated),7.38
5,CCN1CCC(CC(C)C)(N2CCN(C(=O)[C@@H](Cc3ccc(Cl)cc3)NC(=O)CC3NCc4ccccc43)CC2)CC1 (some centres not stated),7.81
6,CC(C)CC1(N2CCN(C(=O)[C@@H](Cc3ccc(Cl)cc3)NC(=O)CC3NCc4ccccc43)CC2)CCN(C(C)C)CC1 (some centres not stated),7.89
7,CC(C)CC1(N2CCN(C(=O)[C@@H](Cc3ccc(Cl)cc3)NC(=O)CC3NCc4ccccc43)CC2)CCSCC1 (some centres not stated),7.16
8,CC(C)CC1(N2CCN(C(=O)[C@@H](Cc3ccc(Cl)cc3)NC(=O)CC3NCc4ccccc43)CC2)CCS(=O)(=O)CC1 (some centres not stated),7.12
9,CN1CCC(CC2CCCCC2)(N2CCN(C(=O)[C@@H](Cc3ccc(Cl)cc3)NC(=O)CC3NCc4ccccc43)CC2)CC1 (some centres not stated),8.17
10,CC(C)CC1(N2CCN(C(=O)[C@@H](Cc3ccc(Cl)cc3)NC(=O)CC3NCc4ccccc43)CC2)CCOCC1 (some centres not stated),7.50
11,CC(=O)N1CCC(CC(C)C)(N2CCN(C(=O)[C@@H](Cc3ccc(Cl)cc3)NC(=O)CC3NCc4ccccc43)CC2)CC1 (some centres not stated),7.43
12,CC(C)CC1(N2CCN(C(=O)[C@@H](Cc3ccc(Cl)cc3)NC(=O)CC3NCc4ccccc43)CC2)CCN(S(C)(=O)=O)CC1 (some centres not stated),7.56
13,CC(C)CC1(N2CCN(C(=O)[C@@H](Cc3ccc(Cl)cc3)NC(=O)CC3NCc4ccccc43)CC2)CCCCC1 (some centres not stated),7.33
14,CN1CCC(c2ccccc2)(N2CCN(C(=O)[C@@H](Cc3ccc(Cl)cc3)NC(=O)CC3NCc4ccccc43)CC2)CC1 (some centres not stated),6.67
15,CC(C)CC1(N2CCN(C(=O)[C@@H](Cc3ccc(Cl)cc3)NC(=O)CC3NCc4ccccc43)CC2)CCN(C)CC1 (some centres not stated),7.90
16,CN1CCC(Cc2ccccc2)(N2CCN(C(=O)[C@@H](Cc3ccc(Cl)cc3)NC(=O)CC3NCc4ccccc43)CC2)CC1 (some centres not stated),7.36
17,CCN(CC)CC(CC1CCCCC1)N1CCN(C(=O)[C@@H](Cc2ccc(Cl)cc2)NC(=O)CC2NCc3ccccc32)CC1 (some centres not stated),8.30
